Data reported in PubChem BioAssay (NCI).
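Following 48 hours of exposure in 96-well plates, responses at five concentrations were used to interpolate endpoints linearly. GI50 is the concentration that inhibits growth by half. TGI: concentration producing complete growth inhibition.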

Tested on: NCI-H226 lung
Experiment: DTP human tumour cell line panel, 48 h

Structure (SMILES) | TGI | GI50
CC(C)C1=CC23CCC4C(C)(C(=O)O)CCCC4(C)C2CC1C1C(=O)N(c2ccc(C(=O)O)cc2)C(=O)C13 (stereo unspecified) | > 100 µM | 
COc1cccc(NC(=O)C(C#N)=C(SC)SC)c1 | > 100 µM | 
COc1ccc2cc(-c3c(-c4ccncc4)nc(-c4ccc(S(C)=O)cc4)n3C)ccc2c1 (stereo unspecified) | > 25 µM | > 9.95 µM

Tested on: NCI-H23 lung
Experiment: DTP human tumour cell line panel, 48 h

Structure (SMILES) | TGI | GI50
Cc1csc2nc(-c3ccc(Cl)c([N+](=O)[O-])c3)c(/C=N/N=C(N)N)n12 | 3.29 µM | 
CN(CCCNC(=O)c1nn(-c2ccc(Cl)cc2Cl)c2c1Cc1ccccc1-2)CCCNC(=O)c1nn(-c2ccc(Cl)cc2Cl)c2c1Cc1ccccc1-2 | 3.48 µM | 
Fc1ccccc1C1SCc2nc3cc4ccccc4cc3n21 (stereo unspecified) | > 100 µM | 
CC(C)C1=CC23CCC4C(C)(C(=O)O)CCCC4(C)C2CC1C1C(=O)N(c2ccc(C(=O)O)cc2)C(=O)C13 (stereo unspecified) | > 100 µM | 
COc1ccc2cc(-c3c(-c4ccncc4)nc(-c4ccc(S(C)=O)cc4)n3C)ccc2c1 (stereo unspecified) | > 25 µM | > 25 µM

Tested on: NCI-H460 lung
Experiment: DTP human tumour cell line panel, 48 h

Structure (SMILES) | TGI | GI50
CN(CCCNC(=O)c1nn(-c2ccc(Cl)cc2Cl)c2c1Cc1ccccc1-2)CCCNC(=O)c1nn(-c2ccc(Cl)cc2Cl)c2c1Cc1ccccc1-2 | 3.19 µM | 
Fc1ccccc1C1SCc2nc3cc4ccccc4cc3n21 (stereo unspecified) | > 100 µM | 
CC(C)C1=CC23CCC4C(C)(C(=O)O)CCCC4(C)C2CC1C1C(=O)N(c2ccc(C(=O)O)cc2)C(=O)C13 (stereo unspecified) | > 100 µM | 
COc1cccc(NC(=O)C(C#N)=C(SC)SC)c1 | > 100 µM | 
COc1ccc2cc(-c3c(-c4ccncc4)nc(-c4ccc(S(C)=O)cc4)n3C)ccc2c1 (stereo unspecified) | > 25 µM | 24.8 µM

Tested on: NCI-H522 lung
Experiment: DTP human tumour cell line panel, 48 h

Structure (SMILES) | TGI | GI50
CN(CCCNC(=O)c1nn(-c2ccc(Cl)cc2Cl)c2c1Cc1ccccc1-2)CCCNC(=O)c1nn(-c2ccc(Cl)cc2Cl)c2c1Cc1ccccc1-2 | 2.9 µM | 
Fc1ccccc1C1SCc2nc3cc4ccccc4cc3n21 (stereo unspecified) | > 100 µM | 
CC(C)C1=CC23CCC4C(C)(C(=O)O)CCCC4(C)C2CC1C1C(=O)N(c2ccc(C(=O)O)cc2)C(=O)C13 (stereo unspecified) | > 100 µM | 
COc1cccc(NC(=O)C(C#N)=C(SC)SC)c1 | > 100 µM | 
COc1ccc2cc(-c3c(-c4ccncc4)nc(-c4ccc(S(C)=O)cc4)n3C)ccc2c1 (stereo unspecified) | > 25 µM | > 18.5 µM

Tested on: NCI/ADR-RES ovarian
Experiment: DTP human tumour cell line panel, 48 h

Structure (SMILES) | TGI | GI50
Cc1csc2nc(-c3ccc(Cl)c([N+](=O)[O-])c3)c(/C=N/N=C(N)N)n12 | 5.95 µM | 
CN(CCCNC(=O)c1nn(-c2ccc(Cl)cc2Cl)c2c1Cc1ccccc1-2)CCCNC(=O)c1nn(-c2ccc(Cl)cc2Cl)c2c1Cc1ccccc1-2 | 3.55 µM | 
Fc1ccccc1C1SCc2nc3cc4ccccc4cc3n21 (stereo unspecified) | > 100 µM | 
CC(C)C1=CC23CCC4C(C)(C(=O)O)CCCC4(C)C2CC1C1C(=O)N(c2ccc(C(=O)O)cc2)C(=O)C13 (stereo unspecified) | > 100 µM | 
COc1cccc(NC(=O)C(C#N)=C(SC)SC)c1 | > 100 µM | 
COc1ccc2cc(-c3c(-c4ccncc4)nc(-c4ccc(S(C)=O)cc4)n3C)ccc2c1 (stereo unspecified) | > 25 µM | > 22.9 µM

Tested on: OVCAR-3 ovarian
Experiment: DTP human tumour cell line panel, 48 h

Structure (SMILES) | TGI | GI50
CN(CCCNC(=O)c1nn(-c2ccc(Cl)cc2Cl)c2c1Cc1ccccc1-2)CCCNC(=O)c1nn(-c2ccc(Cl)cc2Cl)c2c1Cc1ccccc1-2 | 3.09 µM | 
Fc1ccccc1C1SCc2nc3cc4ccccc4cc3n21 (stereo unspecified) | > 100 µM | 
CC(C)C1=CC23CCC4C(C)(C(=O)O)CCCC4(C)C2CC1C1C(=O)N(c2ccc(C(=O)O)cc2)C(=O)C13 (stereo unspecified) | > 100 µM | 
COc1ccc2cc(-c3c(-c4ccncc4)nc(-c4ccc(S(C)=O)cc4)n3C)ccc2c1 (stereo unspecified) | > 25 µM | 15.3 µM

Tested on: OVCAR-4 ovarian
Experiment: DTP human tumour cell line panel, 48 h

Structure (SMILES) | TGI | GI50
Cc1csc2nc(-c3ccc(Cl)c([N+](=O)[O-])c3)c(/C=N/N=C(N)N)n12 | 3.4 µM | 
CN(CCCNC(=O)c1nn(-c2ccc(Cl)cc2Cl)c2c1Cc1ccccc1-2)CCCNC(=O)c1nn(-c2ccc(Cl)cc2Cl)c2c1Cc1ccccc1-2 | 2.58 µM | 
Fc1ccccc1C1SCc2nc3cc4ccccc4cc3n21 (stereo unspecified) | > 100 µM | 
CC(C)C1=CC23CCC4C(C)(C(=O)O)CCCC4(C)C2CC1C1C(=O)N(c2ccc(C(=O)O)cc2)C(=O)C13 (stereo unspecified) | > 100 µM | 
COc1cccc(NC(=O)C(C#N)=C(SC)SC)c1 | > 100 µM | 
COc1ccc2cc(-c3c(-c4ccncc4)nc(-c4ccc(S(C)=O)cc4)n3C)ccc2c1 (stereo unspecified) | > 25 µM | 20.6 µM

Tested on: OVCAR-5 ovarian
Experiment: DTP human tumour cell line panel, 48 h

Structure (SMILES) | TGI | GI50
Cc1csc2nc(-c3ccc(Cl)c([N+](=O)[O-])c3)c(/C=N/N=C(N)N)n12 | 2.55 µM | 
CN(CCCNC(=O)c1nn(-c2ccc(Cl)cc2Cl)c2c1Cc1ccccc1-2)CCCNC(=O)c1nn(-c2ccc(Cl)cc2Cl)c2c1Cc1ccccc1-2 | 2.98 µM | 
Fc1ccccc1C1SCc2nc3cc4ccccc4cc3n21 (stereo unspecified) | > 100 µM | 
COc1cccc(NC(=O)C(C#N)=C(SC)SC)c1 | > 100 µM | 
COc1ccc2cc(-c3c(-c4ccncc4)nc(-c4ccc(S(C)=O)cc4)n3C)ccc2c1 (stereo unspecified) | > 25 µM | > 25 µM

Tested on: OVCAR-8 ovarian
Experiment: DTP human tumour cell line panel, 48 h

Structure (SMILES) | TGI | GI50
Cc1csc2nc(-c3ccc(Cl)c([N+](=O)[O-])c3)c(/C=N/N=C(N)N)n12 | 1.57 µM | 
CN(CCCNC(=O)c1nn(-c2ccc(Cl)cc2Cl)c2c1Cc1ccccc1-2)CCCNC(=O)c1nn(-c2ccc(Cl)cc2Cl)c2c1Cc1ccccc1-2 | 3.46 µM | 
Fc1ccccc1C1SCc2nc3cc4ccccc4cc3n21 (stereo unspecified) | > 100 µM | 
CC(C)C1=CC23CCC4C(C)(C(=O)O)CCCC4(C)C2CC1C1C(=O)N(c2ccc(C(=O)O)cc2)C(=O)C13 (stereo unspecified) | > 100 µM | 
COc1cccc(NC(=O)C(C#N)=C(SC)SC)c1 | > 100 µM | 
COc1ccc2cc(-c3c(-c4ccncc4)nc(-c4ccc(S(C)=O)cc4)n3C)ccc2c1 (stereo unspecified) | > 25 µM | 17.9 µM

Tested on: PC-3 prostate
Experiment: DTP human tumour cell line panel, 48 h

Structure (SMILES) | TGI | GI50
Cc1csc2nc(-c3ccc(Cl)c([N+](=O)[O-])c3)c(/C=N/N=C(N)N)n12 | 2.81 µM | 
CN(CCCNC(=O)c1nn(-c2ccc(Cl)cc2Cl)c2c1Cc1ccccc1-2)CCCNC(=O)c1nn(-c2ccc(Cl)cc2Cl)c2c1Cc1ccccc1-2 | 3.11 µM | 
Fc1ccccc1C1SCc2nc3cc4ccccc4cc3n21 (stereo unspecified) | > 100 µM | 
CC(C)C1=CC23CCC4C(C)(C(=O)O)CCCC4(C)C2CC1C1C(=O)N(c2ccc(C(=O)O)cc2)C(=O)C13 (stereo unspecified) | > 100 µM | 
COc1cccc(NC(=O)C(C#N)=C(SC)SC)c1 | > 100 µM | 
COc1ccc2cc(-c3c(-c4ccncc4)nc(-c4ccc(S(C)=O)cc4)n3C)ccc2c1 (stereo unspecified) | > 25 µM | > 21.3 µM

Tested on: RPMI-8226 leukemia
Experiment: DTP human tumour cell line panel, 48 h

Structure (SMILES) | TGI | GI50
CN(CCCNC(=O)c1nn(-c2ccc(Cl)cc2Cl)c2c1Cc1ccccc1-2)CCCNC(=O)c1nn(-c2ccc(Cl)cc2Cl)c2c1Cc1ccccc1-2 | 3 µM | 
Fc1ccccc1C1SCc2nc3cc4ccccc4cc3n21 (stereo unspecified) | > 100 µM | 
CC(C)C1=CC23CCC4C(C)(C(=O)O)CCCC4(C)C2CC1C1C(=O)N(c2ccc(C(=O)O)cc2)C(=O)C13 (stereo unspecified) | > 100 µM | 
COc1ccc2cc(-c3c(-c4ccncc4)nc(-c4ccc(S(C)=O)cc4)n3C)ccc2c1 (stereo unspecified) | > 25 µM | 17 µM

Tested on: RXF 393 renal
Experiment: DTP human tumour cell line panel, 48 h

Structure (SMILES) | TGI | GI50
Fc1ccccc1C1SCc2nc3cc4ccccc4cc3n21 (stereo unspecified) | 80.1 µM | 
CC(C)C1=CC23CCC4C(C)(C(=O)O)CCCC4(C)C2CC1C1C(=O)N(c2ccc(C(=O)O)cc2)C(=O)C13 (stereo unspecified) | > 100 µM | 
COc1cccc(NC(=O)C(C#N)=C(SC)SC)c1 | > 100 µM | 
COc1ccc2cc(-c3c(-c4ccncc4)nc(-c4ccc(S(C)=O)cc4)n3C)ccc2c1 (stereo unspecified) | > 25 µM | 2.78 µM

Tested on: SF-268 CNS
Experiment: DTP human tumour cell line panel, 48 h

Structure (SMILES) | TGI | GI50
Fc1ccccc1C1SCc2nc3cc4ccccc4cc3n21 (stereo unspecified) | > 100 µM | 
CC(C)C1=CC23CCC4C(C)(C(=O)O)CCCC4(C)C2CC1C1C(=O)N(c2ccc(C(=O)O)cc2)C(=O)C13 (stereo unspecified) | > 100 µM | 
COc1cccc(NC(=O)C(C#N)=C(SC)SC)c1 | > 100 µM | 
COc1ccc2cc(-c3c(-c4ccncc4)nc(-c4ccc(S(C)=O)cc4)n3C)ccc2c1 (stereo unspecified) | > 25 µM | > 25 µM

Tested on: SF-295 CNS
Experiment: DTP human tumour cell line panel, 48 h

Structure (SMILES) | TGI | GI50
Cc1csc2nc(-c3ccc(Cl)c([N+](=O)[O-])c3)c(/C=N/N=C(N)N)n12 | 2.78 µM | 
CN(CCCNC(=O)c1nn(-c2ccc(Cl)cc2Cl)c2c1Cc1ccccc1-2)CCCNC(=O)c1nn(-c2ccc(Cl)cc2Cl)c2c1Cc1ccccc1-2 | 3.15 µM | 
Fc1ccccc1C1SCc2nc3cc4ccccc4cc3n21 (stereo unspecified) | > 100 µM | 
CC(C)C1=CC23CCC4C(C)(C(=O)O)CCCC4(C)C2CC1C1C(=O)N(c2ccc(C(=O)O)cc2)C(=O)C13 (stereo unspecified) | > 100 µM | 
COc1cccc(NC(=O)C(C#N)=C(SC)SC)c1 | > 100 µM | 
COc1ccc2cc(-c3c(-c4ccncc4)nc(-c4ccc(S(C)=O)cc4)n3C)ccc2c1 (stereo unspecified) | > 25 µM | > 22.4 µM

Tested on: SF-539 CNS
Experiment: DTP human tumour cell line panel, 48 h

Structure (SMILES) | TGI | GI50
Cc1csc2nc(-c3ccc(Cl)c([N+](=O)[O-])c3)c(/C=N/N=C(N)N)n12 | 2.98 µM | 
CC(C)C1=CC23CCC4C(C)(C(=O)O)CCCC4(C)C2CC1C1C(=O)N(c2ccc(C(=O)O)cc2)C(=O)C13 (stereo unspecified) | > 100 µM | 
COc1cccc(NC(=O)C(C#N)=C(SC)SC)c1 | > 100 µM | 
COc1ccc2cc(-c3c(-c4ccncc4)nc(-c4ccc(S(C)=O)cc4)n3C)ccc2c1 (stereo unspecified) | > 25 µM | > 25 µM

Tested on: SK-MEL-2 melanoma
Experiment: DTP human tumour cell line panel, 48 h

Structure (SMILES) | TGI
Cc1csc2nc(-c3ccc(Cl)c([N+](=O)[O-])c3)c(/C=N/N=C(N)N)n12 | 2.48 µM
CN(CCCNC(=O)c1nn(-c2ccc(Cl)cc2Cl)c2c1Cc1ccccc1-2)CCCNC(=O)c1nn(-c2ccc(Cl)cc2Cl)c2c1Cc1ccccc1-2 | 3.2 µM
Fc1ccccc1C1SCc2nc3cc4ccccc4cc3n21 (stereo unspecified) | > 100 µM
